Results as given in PubChem BioAssay (NCI).
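Test compounds were applied to cells in 96-well plates for 48 hours at 5 doses. TGI: total growth inhibition.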 Calls of active or inactive are those of the source. Cut-off read from the data, not from the text of the source: active = GI50 below about 0.43 µM; inactive = the rest.

Experiments:
Experiment in all cases: DTP human tumour cell line panel, 48 h
HOP-62 NSCLC = system: HOP-62 NSCLC
CCRF-CEM leukemia = system: CCRF-CEM leukemia
NCI-H460 lung = system: NCI-H460 lung
MDA-MB-435 = system: MDA-MB-435
SR leukemia = system: SR leukemia
OVCAR-5 ovarian = system: OVCAR-5 ovarian
IGROV1 ovarian = system: IGROV1 ovarian
LOX IMVI melanoma = system: LOX IMVI melanoma
OVCAR-4 ovarian = system: OVCAR-4 ovarian
UACC-257 melanoma = system: UACC-257 melanoma
COLO 205 colon = system: COLO 205 colon
MALME-3M melanoma = system: MALME-3M melanoma
HCT-116 colon = system: HCT-116 colon
HCT-15 colon = system: HCT-15 colon
UACC-62 melanoma = system: UACC-62 melanoma
SK-MEL-2 melanoma = system: SK-MEL-2 melanoma
UO-31 renal = system: UO-31 renal
T-47D breast = system: T-47D breast
HT29 colon = system: HT29 colon
MOLT-4 leukemia = system: MOLT-4 leukemia
DU-145 prostate = system: DU-145 prostate
SF-268 CNS = system: SF-268 CNS
HS 578T breast = system: HS 578T breast
NCI-H23 lung = system: NCI-H23 lung
K-562 leukemia = system: K-562 leukemia
HOP-92 NSCLC = system: HOP-92 NSCLC
PC-3 prostate = system: PC-3 prostate
MCF7 breast = system: MCF7 breast
EKVX NSCLC = system: EKVX NSCLC
HL-60(TB) leukemia = system: HL-60(TB) leukemia
A498 renal = system: A498 renal
SNB-19 CNS = system: SNB-19 CNS
A549 NSCLC = system: A549 NSCLC
SK-OV-3 ovarian = system: SK-OV-3 ovarian
M14 melanoma = system: M14 melanoma
OVCAR-3 ovarian = system: OVCAR-3 ovarian
SK-MEL-5 melanoma = system: SK-MEL-5 melanoma
U251 CNS = system: U251 CNS
BT-549 breast = system: BT-549 breast
MDA-MB-231 breast = system: MDA-MB-231 breast
OVCAR-8 ovarian = system: OVCAR-8 ovarian
CAKI-1 renal = system: CAKI-1 renal
SF-539 CNS = system: SF-539 CNS
HCC-2998 colon = system: HCC-2998 colon
RXF 393 renal = system: RXF 393 renal
SK-MEL-28 melanoma = system: SK-MEL-28 melanoma
SN12C renal = system: SN12C renal
SF-295 CNS = system: SF-295 CNS
TK-10 renal = system: TK-10 renal
SNB-75 CNS = system: SNB-75 CNS
SW-620 colon = system: SW-620 colon
NCI/ADR-RES ovarian = system: NCI/ADR-RES ovarian
NCI-H226 lung = system: NCI-H226 lung
NCI-H522 lung = system: NCI-H522 lung
KM12 colon = system: KM12 colon
ACHN renal = system: ACHN renal
RPMI-8226 leukemia = system: RPMI-8226 leukemia
786-0 renal = system: 786-0 renal

O=c1cc(-c2cc(O)c(O)c(-c3c(O)cc(O)c4c(=O)cc(-c5ccc(O)c(O)c5)oc34)c2)oc2cc(O)cc(O)c12
outcome (HOP-62 NSCLC): inactive
outcome (CCRF-CEM leukemia): inactive
outcome (NCI-H460 lung): inactive
outcome (MDA-MB-435): inactive
outcome (SR leukemia): inactive
outcome (OVCAR-5 ovarian): inactive
outcome (IGROV1 ovarian): inactive
outcome (LOX IMVI melanoma): inactive
outcome (OVCAR-4 ovarian): inactive
outcome (UACC-257 melanoma): inactive
outcome (COLO 205 colon): inactive
outcome (MALME-3M melanoma): inactive
outcome (HCT-116 colon): inactive
outcome (HCT-15 colon): inactive
outcome (UACC-62 melanoma): inactive
outcome (SK-MEL-2 melanoma): inactive
outcome (UO-31 renal): inactive
outcome (T-47D breast): inactive
outcome (HT29 colon): inactive
outcome (MOLT-4 leukemia): inactive
outcome (DU-145 prostate): inactive
outcome (SF-268 CNS): inactive
outcome (HS 578T breast): inactive
outcome (NCI-H23 lung): inactive
outcome (K-562 leukemia): inactive
outcome (HOP-92 NSCLC): inactive
outcome (PC-3 prostate): inactive
outcome (MCF7 breast): inactive
outcome (EKVX NSCLC): inactive
outcome (HL-60(TB) leukemia): inactive
outcome (A498 renal): inactive
outcome (SNB-19 CNS): inactive
outcome (A549 NSCLC): inactive
outcome (SK-OV-3 ovarian): inactive
outcome (M14 melanoma): inactive
outcome (OVCAR-3 ovarian): inactive
outcome (SK-MEL-5 melanoma): inactive
outcome (U251 CNS): inactive
outcome (BT-549 breast): inactive
outcome (MDA-MB-231 breast): inactive
outcome (OVCAR-8 ovarian): inactive
outcome (CAKI-1 renal): inactive
outcome (SF-539 CNS): inactive
outcome (HCC-2998 colon): inactive
outcome (RXF 393 renal): inactive
outcome (SK-MEL-28 melanoma): inactive
outcome (SN12C renal): inactive
outcome (SF-295 CNS): inactive
outcome (TK-10 renal): inactive
outcome (SNB-75 CNS): inactive
outcome (SW-620 colon): inactive
outcome (NCI/ADR-RES ovarian): inactive

CC(=O)OC1C2CCC1C1C2N=NN1c1ccc([N+](=O)[O-])cc1 (configuration not stated)
TGI (HOP-62 NSCLC): > 100 µM
TGI (CCRF-CEM leukemia): > 100 µM
TGI (NCI-H460 lung): > 100 µM
TGI (MDA-MB-435): > 100 µM
TGI (SR leukemia): > 100 µM
TGI (OVCAR-5 ovarian): > 100 µM
TGI (IGROV1 ovarian): > 100 µM
TGI (LOX IMVI melanoma): > 100 µM
TGI (NCI-H226 lung): > 100 µM
TGI (OVCAR-4 ovarian): > 100 µM
TGI (UACC-257 melanoma): > 100 µM
TGI (COLO 205 colon): > 100 µM
TGI (NCI-H522 lung): > 100 µM
TGI (MALME-3M melanoma): > 100 µM
TGI (HCT-116 colon): > 100 µM
TGI (HCT-15 colon): > 100 µM
TGI (UACC-62 melanoma): > 100 µM
TGI (SK-MEL-2 melanoma): > 100 µM
TGI (UO-31 renal): > 100 µM
TGI (T-47D breast): > 100 µM
TGI (HT29 colon): > 100 µM
TGI (MOLT-4 leukemia): > 100 µM
TGI (DU-145 prostate): > 100 µM
TGI (SF-268 CNS): > 100 µM
TGI (HS 578T breast): > 100 µM
TGI (KM12 colon): > 100 µM
TGI (NCI-H23 lung): > 100 µM
TGI (HOP-92 NSCLC): > 100 µM
TGI (PC-3 prostate): > 100 µM
TGI (MCF7 breast): > 100 µM
TGI (EKVX NSCLC): > 100 µM
TGI (HL-60(TB) leukemia): > 100 µM
TGI (A498 renal): > 100 µM
TGI (ACHN renal): > 100 µM
TGI (SNB-19 CNS): > 100 µM
TGI (A549 NSCLC): > 100 µM
TGI (SK-OV-3 ovarian): > 100 µM
TGI (M14 melanoma): > 100 µM
TGI (OVCAR-3 ovarian): > 100 µM
TGI (SK-MEL-5 melanoma): > 100 µM
TGI (U251 CNS): > 100 µM
TGI (BT-549 breast): > 100 µM
TGI (MDA-MB-231 breast): > 100 µM
TGI (RPMI-8226 leukemia): > 100 µM
TGI (OVCAR-8 ovarian): > 100 µM
TGI (SF-539 CNS): > 100 µM
TGI (HCC-2998 colon): > 100 µM
TGI (786-0 renal): > 100 µM
TGI (SK-MEL-28 melanoma): > 100 µM
TGI (SN12C renal): > 100 µM
TGI (SF-295 CNS): > 100 µM
TGI (TK-10 renal): > 100 µM
TGI (SNB-75 CNS): > 100 µM
TGI (SW-620 colon): > 100 µM
TGI (NCI/ADR-RES ovarian): > 100 µM
